According to patent publication US20110144577A1, “HYDROPHILIC COATINGS WITH TUNABLE COMPOSITION FOR DRUG COATED BALLOON” (priority 2009, published 2011):

Experiment: Solubility enhancement of zotarolimus with select excipients in PBS
Type: physicochemical
Settings: n = 3
Description: Table 1 provides non-limiting examples of the solubility enhancement provided by excipients that can be used in accordance with the disclosed subject matter: […]

For `CO[C@H]1C[C@@H]2CC[C@@H](C)[C@@](O)(O2)C(=O)C(=O)N2CCCC[C@H]2C(=O)O[C@H]([C@H](C)C[C@@H]2CC[C@H](n3cnnn3)[C@H](OC)C2)CC(=O)[C@H](C)/C=C(\C)[C@@H](O)[C@@H](OC)C(=O)[C@H](C)C[C@H](C)/C=C/C=C/C=C/1C` [Zotarolimus, zotarolimus], the solubility (PBS with 5% w/w PEG 400, aqueous with cosolvent or surfactant or cyclodextrin, PEG 400 5% w/w in PBS) was 31.5 ± 3.5 µg/mL, the solubility (PBS with 5% w/w PEG-PE, aqueous with cosolvent or surfactant or cyclodextrin, PEG-PE 5% w/w in PBS) was 1020 ± 417 µg/mL and the solubility (PBS with 5% w/w PVP C-17, aqueous with cosolvent or surfactant or cyclodextrin, PVP C-17 5% w/w in PBS) was 5.6 ± 1.6 µg/mL. It also gave a solubility (PBS with 5% w/w Tween 20, aqueous with cosolvent or surfactant or cyclodextrin, Tween 20 5% w/w in PBS) of 732 ± 94.7 µg/mL, a solubility (PBS with 5% w/w Vitamin E TPGS, aqueous with cosolvent or surfactant or cyclodextrin, Vitamin E TPGS 5% w/w in PBS) of 512 ± 49.5 µg/mL and a solubility (PBS with 5% w/w glycerol, aqueous with cosolvent or surfactant or cyclodextrin, Glycerol 5% w/w in PBS) of 43.2 ± 30.1 µg/mL. It also gave a solubility (PBS with 5% w/w hydroxypropyl-β-cyclodextrin, aqueous with cosolvent or surfactant or cyclodextrin, Hydroxypropyl-β-cyclodextrin 5% w/w in PBS) of 11.6 ± 3.1 µg/mL and a solubility (PBS with 5% γ-cyclodextrin, aqueous with cosolvent or surfactant or cyclodextrin, 5% γ-Cyclodextrin in PBS) of 55.3 ± 34.3 µg/mL.
